Assay results from PMC9343747 (Phytochemistry Letters, 2022).

Columns and labels:
SARS-CoV-2 pseudovirus [1] = test: microbe, parasite or virus in culture; format: cell-based; details: Severe acute respiratory syndrome-related coronavirus, read-out: EC50, concentration resulting in 50% inhibition of virus replication
SARS-CoV-2 pseudovirus [2] = test: microbe, parasite or virus in culture; format: cell-based; details: Severe acute respiratory syndrome-related coronavirus, read-out: Inhibition rate (%), 5.0 µM, BHK-21-hACE2 cells
in vitro = details: hamster, Cell viability (%), BHK-21-hACE2 cells
[3] = tested on: influenza virus A/Puerto Rico/8/34 (H1N1); format: cell-based; details: read-out: IC50, concentration resulting in 50% inhibition of virus replication; A/Puerto Rico/8/34 (H1N1) in MDCK cells

In the case of CCN(CC)Cc1cc(Nc2ccnc3cc(Cl)ccc23)ccc1O [Amodiaquine, amodiaquine], the EC50 (SARS-CoV-2 pseudovirus [1]) is reported as 3.17 µM, the inhibition at 5 µM (SARS-CoV-2 pseudovirus [2]) is reported as 92.4% and the viability at 20 µM (in vitro) is reported as 107%.

Compound CCC(CC)O[C@@H]1C=C(C(=O)O)C[C@H](N)[C@H]1NC(C)=O [Oseltamivir carboxylate] has an IC50 [3] of 6.4 µM.
